Drawing on US20220143179A1, “DRUG DELIVERY FOR COMBINATION OF EPIGENETIC MODULATION AND IMMUNE CHECKPOINT BLOCKADE” (NORTH CAROLINA STATE UNIVERSITY, priority 2019, published 2022), this text covers IC50 for 4 compounds.

The assay has as its system B16F10 melanoma cells. Nature of the assay: MTT assay, cytotoxicity of hypomethylating agents. The class given is cell-based. Conditions: Mus musculus, read-out: IC50 against B16F10 melanoma cells. The procedure:
First, MTT assays were conducted to compare the cytotoxicity among these agents and determine the appropriate concentration to induce the expression of TAAs.
B16F10 cells were cultured into 96-well plates at a density of 5×10^3 cells per well overnight. […] Finally, the rate of cell viability was calculated according to the absorbance at 560 nm by a plate reader (Power Wave XS, Bio-TEK, USA).
A general note: Tetrazolium assays rely on reduction of a dye to a coloured formazan, in cell work by metabolically active cells.

Where two headings read alike, the source gives them in different places.

What is called IC50 is the concentration at which inhibition is half-maximal. With `Nc1ncn([C@@H]2O[C@H](CO)[C@@H](O)[C@H]2O)c(=O)n1` [AC, 5-Azacytidine], the IC50 (B16-F10, MTT, 72 h incubation) was found to be 49 µM.

For `Nc1ncn([C@H]2C[C@H](O)[C@@H](CO)O2)c(=O)n1` [DAC, 5-Aza-2′-deoxycytidine], under “B16-F10, 72 h”, the IC50 came out at 2.55 µM.

Regarding `Nc1nc(=O)n([C@H]2C[C@H](O)[C@@H](CO)O2)cc1F` [5-F, 5-Fluoro-2′-deoxycytidine], the IC50 (B16-F10, MTT, 72 h incubation) amounted to 1.05 µM.

Take `O=c1ncccn1[C@@H]1O[C@H](CO)[C@@H](O)[C@H]1O` [Zeb, Zebularine]: the IC50 (B16-F10, MTT, 72 h incubation) is 69.2 µM.
